We go through 7 compounds from PMC3595096 (Biochemistry, 2012).

Where “and” joins values, the source holds several entries; their conditions need not be identical. Equal entries are not always repeated. Structures can show the parent of a compound that is named as a salt.

In assay [1] the target is T1, M2 receptor (Sus scrofa, UniProt P06199). It is filed as binding.
The target of assay [2] is T1, M2 receptor. The following applies: cited from earlier work.
Assay [3] concerns various subtypes of muscarinic receptor. Particulars: cited from earlier work.
In assay [4] the target is M2 receptor from porcine atria (Sus scrofa, UniProt P06199). Description: biochemical. The format is binding.
Chain of M2 receptor from porcine atria (P06199 whole entry): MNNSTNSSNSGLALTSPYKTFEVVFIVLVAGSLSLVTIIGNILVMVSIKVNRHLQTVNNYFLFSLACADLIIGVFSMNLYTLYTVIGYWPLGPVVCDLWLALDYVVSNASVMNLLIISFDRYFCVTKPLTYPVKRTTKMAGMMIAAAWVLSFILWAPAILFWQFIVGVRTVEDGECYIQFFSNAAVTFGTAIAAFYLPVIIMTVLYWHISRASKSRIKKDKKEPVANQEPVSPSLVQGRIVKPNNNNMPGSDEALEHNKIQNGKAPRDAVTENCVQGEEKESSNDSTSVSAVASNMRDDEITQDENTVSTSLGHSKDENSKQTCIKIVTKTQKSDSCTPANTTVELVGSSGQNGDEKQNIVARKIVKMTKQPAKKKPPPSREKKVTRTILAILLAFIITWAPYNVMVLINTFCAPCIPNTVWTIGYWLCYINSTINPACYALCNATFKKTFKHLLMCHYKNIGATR
Assay [5] has as its target monomers of the M2 receptor. The following applies: cited from earlier work.
Assay [6] addresses M2 receptor in sarcolemmal membranes (Sus scrofa, UniProt P06199). Description: biochemical. It is filed as binding, porcine.
Assay [7] has as its system muscarinic acetylcholine M2 receptors. Particulars: cited from earlier work.
The target in assay [8] is T2, human M2 receptor (Homo sapiens, UniProt P08172). It is filed as binding.
T2 sequence (P08172 whole entry): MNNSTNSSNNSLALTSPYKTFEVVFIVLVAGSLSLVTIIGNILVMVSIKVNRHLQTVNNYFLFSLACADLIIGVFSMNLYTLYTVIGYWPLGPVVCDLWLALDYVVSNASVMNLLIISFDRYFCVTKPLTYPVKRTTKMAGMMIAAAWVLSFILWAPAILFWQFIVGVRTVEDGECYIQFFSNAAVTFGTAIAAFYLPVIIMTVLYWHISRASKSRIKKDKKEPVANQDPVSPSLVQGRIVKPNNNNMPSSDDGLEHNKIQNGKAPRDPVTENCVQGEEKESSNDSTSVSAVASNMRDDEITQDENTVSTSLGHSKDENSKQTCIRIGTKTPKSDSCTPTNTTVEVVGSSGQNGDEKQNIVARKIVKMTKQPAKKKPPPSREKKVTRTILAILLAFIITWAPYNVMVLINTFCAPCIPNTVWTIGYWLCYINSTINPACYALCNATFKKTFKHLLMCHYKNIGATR
The target in assay [9] is T2, human M2 receptor. The format is binding. The source holds these as a separate data set.
Assay [10] has as its target M2 receptor extracted from porcine atria (Sus scrofa, UniProt P06199). It is filed as binding.

Chain of M2 receptor in sarcolemmal membranes (P06199 whole entry): as the sequence (P06199 whole entry) above
T1 sequence (P06199 whole entry): as above
Chain of M2 receptor extracted from porcine atria (P06199 whole entry): as above

For `CN1[C@@H]2CC[C@H]1C[C@@H](OC(=O)C(CO)c1ccccc1)C2` (stereo partly shown) [atropine, Atropine sulfate], the “Hill coefficient for inhibition of N-[3H]methylscopolamine” value at M2 receptor [1] is listed as “indistinguishable from 1”.
As for `Nc1c2c(nc3ccccc13)CCCC2` [tacrine], the Hill coefficient result was “exceed 1” on M2 receptor [2] and “greater than 1” in assay [3].
As to `CC[N+](CC)(CC)CCOc1cccc(OCC[N+](CC)(CC)CC)c1OCC[N+](CC)(CC)CC` [gallamine, gallamine triethiodide], the half-maximal effective concentration (EC50) in [4] was approximately 71000 nM; in [6] (log K1), 53.7 nM and 282 nM. In [5], the “log K” value was −4.12. Further, the “cooperativity factor (1/α), Scheme 2” value in assay [6] was “about 70”. Moreover, the cooperativity factor in assay [7] is given as 46. Further, on human M2 receptor [8], the “nH(1)” value amounted to 2.41.
As to `COC(=O)[C@@]1(OC)C[C@H]2O[C@]1(C)n1c3ccccc3c3c4c(c5c6ccccc6n2c5c31)C(=O)N(C)C4` [KT5823], the Hill coefficient entry in assay [3] is recorded as “greater than 1”.
For the compound `COc1ccc2c(c1)c1c3c(c4c5ccccc5n(C)c4c1n2CC(O)CN(C)C)C(=O)NC3=O` (stereo not shown) [Go7874], the Hill coefficient entry in assay [3] is recorded as “greater than 1”.
On to `Clc1cccc(Cl)c1CO/N=C/c1cc[n+](CCC[n+]2ccc(/C=N/OCc3c(Cl)cccc3Cl)cc2)cc1` [Duo-3], for which, in assay [3], the Hill coefficient result is recorded as “greater than 1”.
Consider `C[N+]1(C)[C@@H]2C[C@@H](OC(=O)[C@H](CO)c3ccccc3)C[C@H]1[C@@H]1O[C@@H]12` [N-[^3H]methylscopolamine, N-[^3H]Methylscopolamine], for which, on human M2 receptor [9], the “observed rate constant for dissociation kobsd, range of values” was 0.054 to 0.059 min⁻¹ and the “rate constant of net dissociation k (mean)” value was 0.053 ± 0.002. For the same compound, the “observed rate constant for dissociation kobsd, range of values” in assay [10] was 0.179 to 0.247 min⁻¹. For the same compound, in assay [5], the “rate constant of dissociation” value was 0.036 ± 0.001.

The term EC50 denotes the midpoint of the concentration-response curve. Low values mean higher potency in that assay, high ones lower potency in that assay.
